Assay results published in patent US9045445B2, “Glycine transporter-1 inhibitors, methods of making them, and uses thereof” (Albany Molecular Research, Inc., priority 2010, dated 2015).
Counter-ions that a name gives are not always drawn.

Columns and labels:
[1] = biological target: T1, glycine transporter-2 (GlyT-2) (Homo sapiens, UniProt Q9Y345); experiment: [14C]glycine uptake assay in HEK-GlyT-2 transfected cells; assay type: cell-based; details: HEK-GlyT-2 cells
T1 construct: expressed in transfected cells
T1 sequence (Q9Y345 1-797): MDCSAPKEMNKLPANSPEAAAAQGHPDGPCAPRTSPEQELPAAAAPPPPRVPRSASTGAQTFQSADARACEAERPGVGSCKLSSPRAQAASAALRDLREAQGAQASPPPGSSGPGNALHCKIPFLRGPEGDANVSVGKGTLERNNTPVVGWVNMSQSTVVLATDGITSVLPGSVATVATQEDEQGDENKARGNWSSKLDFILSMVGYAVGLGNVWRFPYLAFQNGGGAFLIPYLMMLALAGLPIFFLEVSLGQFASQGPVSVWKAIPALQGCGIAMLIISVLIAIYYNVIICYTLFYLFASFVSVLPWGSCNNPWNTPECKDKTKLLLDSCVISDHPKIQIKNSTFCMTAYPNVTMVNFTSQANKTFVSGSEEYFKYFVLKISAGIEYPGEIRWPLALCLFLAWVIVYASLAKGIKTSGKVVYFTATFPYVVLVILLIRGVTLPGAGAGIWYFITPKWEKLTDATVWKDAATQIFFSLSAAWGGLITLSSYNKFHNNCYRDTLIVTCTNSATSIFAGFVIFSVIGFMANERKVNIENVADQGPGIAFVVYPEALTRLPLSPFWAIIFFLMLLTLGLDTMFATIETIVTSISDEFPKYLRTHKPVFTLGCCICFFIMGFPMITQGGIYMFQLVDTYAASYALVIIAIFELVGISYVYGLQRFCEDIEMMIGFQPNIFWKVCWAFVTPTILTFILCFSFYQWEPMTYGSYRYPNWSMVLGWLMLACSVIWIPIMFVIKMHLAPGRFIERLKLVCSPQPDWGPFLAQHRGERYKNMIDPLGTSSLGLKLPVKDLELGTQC

[2] = biological target: T2, glycine transporter-1 (GlyT-1) (Homo sapiens, UniProt P48067); experiment: [14C]glycine uptake assay in JAR cells endogenously expressing GlyT-1 (scintillation proximity); assay type: cell-based; details: JAR cells, [14C]glycine 5 μM, 3 hour incubation; read-out: GlyT-1 IC50
T2 construct: JAR cells (ATCC#HTB-144), which endogenously express GlyT-1; host or cells: JAR human choriocarcinoma cells
T2 sequence (P48067 1-706): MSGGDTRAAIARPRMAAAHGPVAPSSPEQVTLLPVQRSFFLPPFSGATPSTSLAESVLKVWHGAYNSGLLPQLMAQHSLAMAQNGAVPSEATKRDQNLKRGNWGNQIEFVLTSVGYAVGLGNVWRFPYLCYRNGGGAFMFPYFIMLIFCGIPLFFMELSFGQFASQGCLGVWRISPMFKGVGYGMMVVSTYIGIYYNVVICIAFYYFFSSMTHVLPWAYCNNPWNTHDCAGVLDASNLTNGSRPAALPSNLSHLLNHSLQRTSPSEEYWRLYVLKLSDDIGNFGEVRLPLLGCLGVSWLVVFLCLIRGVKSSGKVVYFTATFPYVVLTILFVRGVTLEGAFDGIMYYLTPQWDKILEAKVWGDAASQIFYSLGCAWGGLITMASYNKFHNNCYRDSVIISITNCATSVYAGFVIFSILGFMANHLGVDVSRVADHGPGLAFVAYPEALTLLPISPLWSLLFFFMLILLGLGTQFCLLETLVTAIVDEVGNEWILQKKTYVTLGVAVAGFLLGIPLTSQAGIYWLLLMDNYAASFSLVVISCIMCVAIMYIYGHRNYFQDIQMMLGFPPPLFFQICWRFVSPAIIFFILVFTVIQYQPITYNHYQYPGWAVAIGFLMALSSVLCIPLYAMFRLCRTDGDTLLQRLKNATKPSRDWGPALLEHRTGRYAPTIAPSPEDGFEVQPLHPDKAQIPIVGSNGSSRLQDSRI
How it was run: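 IC50 comes from a four-parameter fit of nine-point, duplicate curves measuring inhibition of 5 μM [14C]glycine uptake, read by scintillation proximity after 3 h at 37 °C. Cells are human JAR, which express GlyT-1 endogenously, given 10 min compound pre-treatment in pH 7.4 buffer with 5 mM alanine and 0.75% DMSO.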

IC50 [1] [nM]	IC50 [2] [nM]	SMILES
> 75000	14	COc1cc(F)cc(C)c1C(=O)NCC1(N2CCN(S(=O)(=O)c3cn(C)nn3)CC2)CCCC1 [compound 112, 4-Fluoro-2-methoxy-6-methyl-N-((1-(4-(1-methyl-1H-1,2,3-triazol-4-ylsulfonyl)piperazin-1-yl)cyclopentyl)methyl) benzamide Hydrochloride]
> 75000	10	Cc1cc(F)ccc1C(=O)NCC1(N2CCN(S(=O)(=O)c3cn(C)cn3)CC2)CCCCC1 [compound 102, 4-Fluoro-2-methyl-N-((1-(4-(1-methyl-1H-imidazol-4-ylsulfonyl)piperazin-1-yl)cyclohexyl)methyl) benzamide Hydrochloride]
> 75000	20	CCCS(=O)(=O)N1CCN(C2(CNC(=O)c3c(F)ccc(F)c3Cl)CCCCCC2)CC1 [compound 54, 2-Chloro-3,6-difluoro-N-((1-(4-(propylsulfonyl)piperazin-1-yl)cycloheptyl)methyl) benzamide Hydrochloride]
> 75000	95	CCCS(=O)(=O)N1CCN(C2(CNC(=O)c3c(OC)cc(F)cc3SC)CCOCC2)CC1 [compound 122, 4-Fluoro-2-methoxy-6-(methylthio)-N-((4-(4-(propylsulfonyl)piperazin-1-yl)tetrahydro-2H-pyran-4-yl)methyl)benzamide Hydrochloride]
> 75000	83	CC(NC(=O)c1ccc(F)cc1Cl)C1(N2CCN(S(=O)(=O)c3cn(C)nn3)CC2)CCC(F)(F)CC1 (centres unmarked) [compound 220, 2-Chloro-N-(1-(4,4-difluoro-1-(4-(1-methyl-1H-1,2,3-triazol-4-ylsulfonyl)piperazin-1-yl)cyclohexyl)ethyl)-4-fluorobenzamide Hydrochloride]
> 75000	27	Cn1cc(S(=O)(=O)N2CCN(C3(CNC(=O)c4ccc(Cl)cc4Cl)CCCC3)CC2)nn1 [compound 110, 2,4-Dichloro-N-((1-(4-(1-methyl-1H-1,2,3-triazol-4-ylsulfonyl)piperazin-1-yl)cyclopentyl)methyl) benzamide Hydrochloride]
> 75000	373	CCCS(=O)(=O)N1CCN(C2(CNC(=O)c3ccc(Cl)cc3OC)CCCCCC2)CC1 [compound 53, 4-Chloro-2-methoxy-N-((1-(4-(propylsulfonyl)piperazin-1-yl)cycloheptyl)methyl) benzamide Hydrochloride]
> 75000	56	O=C(NCC1(N2CCN(S(=O)(=O)CC3CC3)CC2)CCCCC1)c1ccc(Cl)cc1Cl [compound 84, 2,4-Dichloro-N-((1-(4-(cyclopropylmethyl-sulfonyl)piperazin-1-yl)cyclohexyl)methyl) benzamide Hydrochloride]
> 75000	61	O=C(NCC1(N2CCN(S(=O)(=O)CC3CC3)CC2)CCCCC1)c1c(F)cccc1F [compound 81, N-((1-(4-(Cyclopropylmethyl-sulfonyl)piperazin-1-yl)cyclohexyl)methyl)-2,6-difluorobenzamide Hydrochloride]
> 75000	48	CCCS(=O)(=O)N1CCN(C2(CNC(=O)c3ccccc3OC(F)(F)F)CCC(F)(F)CC2)CC1 [compound 141, N-((4,4-Difluoro-1-(4-(propylsulfonyl)piperazin-1-yl)cyclohexyl)methyl)-2-(trifluoromethoxy) benzamide Hydrochloride]
> 75000	319	O=C(NCC1(N2CCN(S(=O)(=O)C3CCC3)CC2)CCCCC1)c1ccc(Cl)cc1Cl [compound 93, 2,4-Dichloro-N-((1-(4-(cyclobutylsulfonyl)piperazin-1-yl)cyclohexyl)methyl)benzamide Hydrochloride]
> 75000	79	CCCS(=O)(=O)N1CCN(C2(CNC(=O)c3ccc(C)cc3C)CCCCC2)CC1 [compound 30, 2,4-Dimethyl-N-((1-(4-(propylsulfonyl)piperazin-1-yl)cyclohexyl)methyl) benzamide Hydrochloride]
> 75000	25	CCCS(=O)(=O)N1CCN(C2(CNC(=O)c3c(OC)cc(F)cc3SC)CCC(F)(F)CC2)CC1 [compound 138, N-((4,4-Difluoro-1-(4-(propylsulfonyl)piperazin-1-yl)cyclohexyl)methyl)-4-fluoro-2-methoxy-6-(methylthio)benzamide Hydrochloride]
> 75000	418	CCCS(=O)(=O)N1CCN(C2(CNC(=O)c3c(F)cccc3OC)CCOCC2)CC1 [compound 123, 2-Fluoro-6-methoxy-N-((4-(4-(propyl-sulfonyl)piperazin-1-yl)tetrahydro-2H-pyran-4-yl)methyl)benzamide Hydrochloride]
> 75000	28	CCCS(=O)(=O)N1CCN(C2(CNC(=O)c3ccc(Br)cc3C)CCCCC2)CC1 [compound 18, 4-Bromo-2-methyl-N-((1-(4-(propylsulfonyl)piperazin-1-yl)cyclohexyl)methyl) benzamide Hydrochloride]
> 75000	1	Cn1cc(S(=O)(=O)N2CCN(C3(CNC(=O)c4cc(F)c(Cl)cc4Cl)CCC(F)(F)CC3)CC2)nn1 [compound 231, 2,4-Dichloro-N-((4,4-difluoro-1-(4-(1-methyl-1H-1,2,3-triazol-4-ylsulfonyl)piperazin-1-yl)cyclohexyl)methyl)-5-fluorobenzamide Hydrochloride]
> 75000	64	CCS(=O)(=O)N1CCN(C2(CNC(=O)c3c(Cl)cc(C(F)(F)F)cc3Cl)CCC(F)(F)CC2)CC1 [compound 207, 2,6-Dichloro-N-((1-(4-(ethylsulfonyl)piperazin-1-yl)-4,4-difluoro-cyclohexyl)methyl)-4-(trifluoromethyl) benzamide Hydrochloride]
39000	15	CCCS(=O)(=O)N1CCN(C2(CNC(=O)c3c(C)cc(F)cc3OC)CCCCC2)CC1 [compound 19, 4-Fluoro-2-methoxy-6-methyl-N-((1-(4-(propyl-sulfonyl)piperazin-1-yl)cyclohexyl)methyl) benzamide Hydrochloride]
> 75000	357	CCCS(=O)(=O)N1CCN(C2(CNC(=O)c3ccc(F)cc3OC)CCCCC2)CC1 [compound 46, 4-Fluoro-2-methoxy-N-((1-(4-(propyl-sulfonyl)piperazin-1-yl)cyclohexyl)methyl) benzamide Hydrochloride]
> 75000	48	CCCS(=O)(=O)N1CCN(C2(CNC(=O)c3ccccc3OC)CCC(F)(F)CC2)CC1 [compound 133, N-((4,4-Difluoro-1-(4-(propylsulfonyl)piperazin-1-yl)cyclohexyl)methyl)-2-methoxybenzamide Hydrochloride]
> 75000	29	Cc1cccc(F)c1C(=O)NCC1(N2CCN(S(=O)(=O)CC3CC3)CC2)CCCCC1 [compound 80, N-((1-(4-(Cyclopropylmethyl-sulfonyl)piperazin-1-yl)cyclohexyl)methyl)-2-fluoro-6-methylbenzamide Hydrochloride]

SMILES	IC50 [1] [nM]	IC50 [2] [nM]
O=C(NCC1(N2CCC(S(=O)(=O)CC3CC3)CC2)CCCCC1)c1ccc(Cl)cc1Cl [compound 200, 2,4-Dichloro-N-((1-(4-(cyclopropylmethyl-sulfonyl)piperidin-1-yl)cyclohexyl)methyl) benzamide Hydrochloride]	> 75000	1080
